Reference: patent US20210253710A1, “DIAGNOSTIC AND THERAPEUTIC METHODS FOR KIDNEY CANCER” (Genentech, Inc., priority 2018, published 2021)
Where two headings read alike, the source gives them in different places. Marks after values point to notes of the source that are not given here.

Experiments:
[1] = system: patients with inoperable, locally advanced, or metastatic RCC; assay: IMmotion151 Phase III study: efficacy of atezolizumab plus bevacizumab versus sunitinib (ITT and PD-L1+ populations); format: in vivo, human; conditions: investigator-assessed
Description: The IMmotion151 study (ClinicalTrials.gov Identifier NCT02420821) is a multi-center, randomized, open-label study to evaluate the efficacy and safety of atezolizumab plus bevacizumab versus sunitinib in patients with inoperable, locally advanced, or metastatic RCC who have not received prior systemic active or experimental therapy in either the adjuvant or metastatic setting. The co-primary endpoints of the study were PFS in the PD-L1^+ subgroup, and OS in the ITT population. The exploratory endpoints included biomarker characterization in sarcomatoid tumors and MSKCC risk subgroups, as well as validation of gene signatures from the IMmotion150 study and their association with PFS. […]
IMmotion151 is a multicenter, randomized, open-label, Phase III study evaluating the efficacy and safety of atezolizumab+bevacizumab vs those of sunitinib in patients with previously untreated, inoperable, locally advanced or metastatic RCC (FIG. 1). The co-primary endpoints were (i) investigator (INV)-assessed progression-free survival (PFS) in patients with ≥1% IC expressing PD-L1 (PD-L1+) and (ii) interim overall survival (OS) in the intent-to-treat (ITT) population. […]

[2] = system: patients with metastatic RCC with sarcomatoid histology; assay: IMmotion151 subgroup analysis: efficacy in patients whose tumors had sarcomatoid histology; format: in vivo, human; conditions: for Median OS: clinical cutoff Aug. 13, 2018; for Confirmed INV-assessed ORR / Median INV-assessed PFS: clinical cutoff Sep. 29, 2017
Description: Sarcomatoid renal carcinoma was defined as any histologic type of renal cell carcinoma containing a focus/foci of high-grade malignant spindle cells of any component relative to the entire tumor area. Such a classification required evidence of epithelial differentiation with concurrent areas of renal cell carcinoma or evidence of epithelial differentiation in the spindle cells with immunohistochemical positivity for keratin or epithelial membrane antigen (EMA). Frequent patterns include fibrosarcoma, malignant fibrous histiocytoma, and rhabdomyosarcoma. Focal spindling due to noncohesion of tumor cells was not considered to represent sarcomatoid differentiation. Any spindle component relative to the entire tumor area was sufficient. The degree of sarcomatoid differentiation was recorded as 1) any component, 2) >20% component, or 3) predominant sarcomatoid component.
(§1) IMmotion151 is a multicenter, randomized, open-label, Phase III study evaluating the efficacy and safety of atezolizumab+bevacizumab vs those of sunitinib in patients with previously untreated, inoperable, locally advanced or metastatic RCC (FIG. 1). The co-primary endpoints were (i) investigator (INV)-assessed progression-free survival (PFS) in patients with ≥1% IC expressing PD-L1 (PD-L1+) and (ii) interim overall survival (OS) in the intent-to-treat (ITT) population. Secondary endpoints inclue INV-assessed PFS and OS in patients with sarcomatoid histology and are reported here with INV-assessed objective response rate (ORR), safety, patient-reported outcomes (PROs) of symptoms and function and biomarker evaluation.
Patients were included in this subgroup analysis if their tumor had any component of sarcomatoid histology, referred to in this presentation as “All Sarc,” as reported by the investigator per the local pathology report. P values are for descriptive purposes only. Gene expression analyses of baseline tumor samples were performed as previously described and focused on T-effector and angiogenesis signatures (see, e.g., McDermott et al. Nat. Med. 24:749-757, 2018). The clinical cutoff for PFS, ORR, PRO and safety was Sep. 29, 2017, with a median follow-up of 13 months. The clinical cutoff for OS was Aug. 13, 2018, with a median follow-up of 17 months.

[3] = system: patients with untreated metastatic renal cell carcinoma; assay: IMmotion151 PFS analysis in biomarker-evaluable subgroups (Angio and Teff gene signatures, MSKCC risk); format: in vivo, human
Protocol: The MSKCC (Motzer) criteria used were as follows. The risk factors included 1) a Karnofsky Performance Status (KPS) score <80; 2) a corrected serum calcium >10 mg/dL; 3) an LDH level >1.5 times the upper limit of normal; 4) a hemoglobin level <the lower limit of normal; 5) a time from nephrectomy to systemic therapy of […] (an individual also was scored as having this risk factor if they were initially assessed with metastatic disease or if they have had no nephrectomy). The risk stratification was as follows: individuals having 3 risk factors belong to the poor risk subgroup; individuals having 1 or 2 risk factors belong to the intermediate risk subgroup; and individuals having 0 risk factors belong to the favorable group. For study purposes, systemic therapy was designated as the date of initial study screening. The formula for corrected calcium was Corrected calcium=serum calcium (mg/dL)+0.8 (4 […] serum albumin (g/dL)).
In the phase II IMmotion150 study, gene signatures were identified based on association with clinical outcome. The T-effector (“Teff”) signature included CD8a, IFNG, PRF1, EOMES, and CD274. The Angiogenesis (“Angio”) signature included VEGFA, KDR, ESM1, PECAM1, CD34, and ANGPTL4. […] In the IMmotion151 study, a pre-specified analysis of association with PFS was performed. Unstratified HR and log-rank test were used for PFS analyses in biomarker-evaluable patients. The IMmotion151 transcriptome map confirmed biological subgroups identified in […], including the angiogenesis, immune and antigen presentation (including the Teff signature), and myeloid inflammation subgroups (FIG. 4).

[4] = system: safety-evaluable patients with locally advanced or metastatic RCC; assay: IMmotion151 safety (adverse events, AESI); format: in vivo; conditions: for Patients with ≥ 1 event: Adrenal insufficiency, All Grades / Patients with ≥ 1 event: Adrenal insufficiency, Grade 3-4 / Patients with ≥ 1 event: Colitis, All Grades / Patients with ≥ 1 event: Colitis, Grade 3-4 / Patients with ≥ 1 event: Hyperthyroidism, All Grades / Patients with ≥ 1 event: Hyperthyroidism, Grade 3-4 / Patients with ≥ 1 event: Hypothyroidism, All Grades / Patients with ≥ 1 event: Hypothyroidism, Grade 3-4 / Patients with ≥ 1 event: Liver function test abnormalities, All Grades / Patients with ≥ 1 event: Liver function test abnormalities, Grade 3-4 / Patients with ≥ 1 event: Pneumonitis, All Grades / Patients with ≥ 1 event: Pneumonitis, Grade 3-4 / Patients with ≥ 1 event: Rash, All Grades / Patients with ≥ 1 event: Rash, Grade 3-4: AESI; for Patients with ≥ 1 event: Any AESI, All Grades / Patients with ≥ 1 event: Any AESI, Grade 3-4: all treatment-emergent AEs
Protocol: Patients in the Atezolizumab+Bevacizumab (“Atezo+Bev”) arm received both atezolizumab and bevacizumab until loss of clinical benefit, unacceptable toxicity or symptomatic deterioration attributed to disease progression, withdrawal of consent, or death, whichever occured first. Atezolizumab was administered at a fixed dose of 1200 milligrams (mg) via intravenous (IV) infusion on Days 1 and 22 of each 42-day cycle. Bevacizumab was be administered at a dose of 15 milligrams per kilogram (mg/kg) via IV infusion on Days 1 and 22 of each 42-day cycle. Patients in the sunitinib arm received sunitinib until loss of clinical benefit, unacceptable toxicity or symptomatic deterioration attributed to disease progression, withdrawal of consent, or death, whichever occured first. Sunitinib was administered at a dose of 50 mg once daily, orally via capsule, on Day 1 through Day 28 of each 42-day cycle.
as §1
Patients were included in this subgroup analysis if their tumor had any component of sarcomatoid histology, referred to in this presentation as “All Sarc,” as reported by the investigator per the local pathology report. P values are for descriptive purposes only. […] The clinical cutoff for PFS, ORR, PRO and safety was Sep. […] The clinical cutoff for OS was Aug.

[5] = system: patients with inoperable, locally advanced, or metastatic RCC; conditions: Rini et al. Lancet 2019, cited from earlier work; for Median OS: clinical cutoff Aug. 13, 2018; for Confirmed INV-assessed ORR / Median INV-assessed PFS: clinical cutoff Sep. 29, 2017
[6] = patients with >20% sarcomatoid component

CCN(CC)CCNC(=O)c1c(C)[nH]c(/C=C2\C(=O)Nc3ccc(F)cc32)c1C [Sunitinib, N-[2-(Diethylamino)ethyl]-5-[(Z)-(5-fluoro-2-oxo-1,2-dihydro-3H-indol-3-ylidene)methyl]-2,4-dimethyl-1H-pyrrole-3-carboxamide]
median PFS ([1]; ITT population): 8.4 months
median PFS ([1]; PD-L1+ patients): 7.7 months
CR ([2]; All Sarc): 3%
Ongoing responses ([2]; All Sarc): 3 n
Median OS ([2]; All Sarc): 15.4 mo
Confirmed INV-assessed ORR ([2]; All Sarc): 14%
Median INV-assessed PFS ([2]; All Sarc): 5.3 mo
CR ([2]; PD-Li + Sarc): 4%
Ongoing responses ([2]; PD-Li + Sarc): 0 n
Median OS ([2]; PD-Li + Sarc): 15.0 mo
Confirmed INV-assessed ORR ([2]; PD-Li + Sarc): 12%
Median INV-assessed PFS ([2]; PD-Li + Sarc): 5.6 mo
CR rate [2, 6]: 0%
ORR [2, 6]: 4%
overall response rate (ORR) ([2]; patients with sarcomatoid differentiation (Example 1)): 18%
Teff gene signature and PFS within the treatment arm ([3]; Teff High versus Low within arm, in words): did not differentiate PFS
PFS in the Angio High subgroup versus the Angio Low subgroup ([3]; within sunitinib arm, in words): improved PFS
PFS HR (95% CI) for Angiogenesis (High versus Low) ([3]; within treatment arm): 0.59 (0.47, 0.75)
Treatment-related AEs ([4]; All Safety Evaluable): 96%
Treatment-related AEs leading to discontinuation of any treatment component ([4]; All Safety Evaluable): 8%
Treatment-related AEs leading to discontinuation of treatment regimen ([4]; All Safety Evaluable): 8%
Treatment-related AEs, Grade 3-4 ([4]; All Safety Evaluable): 54%
Treatment-related deaths ([4]; All Safety Evaluable): 1^e n
Patients with ≥ 1 event: Adrenal insufficiency, All Grades ([4]; All Safety Evaluable): 0%
Patients with ≥ 1 event: Adrenal insufficiency, Grade 3-4 ([4]; All Safety Evaluable): 0%
Patients with ≥ 1 event: Colitis, All Grades ([4]; All Safety Evaluable): <1%
Patients with ≥ 1 event: Colitis, Grade 3-4 ([4]; All Safety Evaluable): <1%
Patients with ≥ 1 event: Hyperthyroidism, All Grades ([4]; All Safety Evaluable): 3%
Patients with ≥ 1 event: Hyperthyroidism, Grade 3-4 ([4]; All Safety Evaluable): 0%
Patients with ≥ 1 event: Hypothyroidism, All Grades ([4]; All Safety Evaluable): 26%
Patients with ≥ 1 event: Hypothyroidism, Grade 3-4 ([4]; All Safety Evaluable): <1%
Patients with ≥ 1 event: Liver function test abnormalities, All Grades ([4]; All Safety Evaluable): 18%
Patients with ≥ 1 event: Liver function test abnormalities, Grade 3-4 ([4]; All Safety Evaluable): 4%
Patients with ≥ 1 event: Pneumonitis, All Grades ([4]; All Safety Evaluable): 0%
Patients with ≥ 1 event: Pneumonitis, Grade 3-4 ([4]; All Safety Evaluable): 0%
Patients with ≥ 1 event: Rash, All Grades ([4]; All Safety Evaluable): 15%
Patients with ≥ 1 event: Rash, Grade 3-4 ([4]; All Safety Evaluable): <1%
Patients with ≥ 1 event: Any AESI, All Grades ([4]; All Safety Evaluable): 72%
Patients with ≥ 1 event: Any AESI, Grade 3-4 ([4]; All Safety Evaluable): 17%
Treatment-related AEs ([4]; Sarc Safety Evaluable): 94%
Treatment-related AEs leading to discontinuation of any treatment component ([4]; Sarc Safety Evaluable): 3%
Treatment-related AEs leading to discontinuation of treatment regimen ([4]; Sarc Safety Evaluable): 3%
Treatment-related AEs, Grade 3-4 ([4]; Sarc Safety Evaluable): 49%
Treatment-related deaths ([4]; Sarc Safety Evaluable): 0 n
Patients with ≥ 1 event: Adrenal insufficiency, All Grades ([4]; Sarc Safety Evaluable): 0%
Patients with ≥ 1 event: Adrenal insufficiency, Grade 3-4 ([4]; Sarc Safety Evaluable): 0%
Patients with ≥ 1 event: Colitis, All Grades ([4]; Sarc Safety Evaluable): 1%
Patients with ≥ 1 event: Colitis, Grade 3-4 ([4]; Sarc Safety Evaluable): 0%
Patients with ≥ 1 event: Hyperthyroidism, All Grades ([4]; Sarc Safety Evaluable): 1%
Patients with ≥ 1 event: Hyperthyroidism, Grade 3-4 ([4]; Sarc Safety Evaluable): 0%
Patients with ≥ 1 event: Hypothyroidism, All Grades ([4]; Sarc Safety Evaluable): 16%
Patients with ≥ 1 event: Hypothyroidism, Grade 3-4 ([4]; Sarc Safety Evaluable): 0%
Patients with ≥ 1 event: Liver function test abnormalities, All Grades ([4]; Sarc Safety Evaluable): 10%
Patients with ≥ 1 event: Liver function test abnormalities, Grade 3-4 ([4]; Sarc Safety Evaluable): 3%
Patients with ≥ 1 event: Pneumonitis, All Grades ([4]; Sarc Safety Evaluable): 0%
Patients with ≥ 1 event: Pneumonitis, Grade 3-4 ([4]; Sarc Safety Evaluable): 0%
Patients with ≥ 1 event: Rash, All Grades ([4]; Sarc Safety Evaluable): 14%
Patients with ≥ 1 event: Rash, Grade 3-4 ([4]; Sarc Safety Evaluable): 0%
Patients with ≥ 1 event: Any AESI, All Grades ([4]; Sarc Safety Evaluable): 66%
Patients with ≥ 1 event: Any AESI, Grade 3-4 ([4]; Sarc Safety Evaluable): 11%
CR ([5]; ITT): 2%
Ongoing responses ([5]; ITT): 90 n
Median OS ([5]; ITT): 34.9 mo
Confirmed INV-assessed ORR ([5]; ITT): 33%
Median INV-assessed PFS ([5]; ITT): 8.4 mo
CR ([5]; PD-L1 + ITT): 4%
Ongoing responses ([5]; PD-L1 + ITT): 34 n
Median OS ([5]; PD-L1 + ITT): 32.7 mo
Confirmed INV-assessed ORR ([5]; PD-L1 + ITT): 35%
Median INV-assessed PFS ([5]; PD-L1 + ITT): 7.7 mo
